Data: patent US20230141101A1, “PDE4 INHIBITOR COMPOUND AND MEDICAL USE THEREOF” (Suzhou Longbotai Pharmaceuticals Co., Ltd., priority 2020, published 2023)

Assays:
Assay type in all cases: biochemical
Conditions in all cases: 20 nM
PDE4A1A = target: T1, PDE4A1A (Homo sapiens, UniProt P27815); test: PDE4 inhibitory activity assay (FAM-cAMP enzymatic reaction), PDE4A1A
T1 construct: purchased BPS 60040
How it was run: (§1)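 Human PDE4A1A, PDE4B1 or PDE4D2 preincubated with compound 15 min at room temperature, then FAM-cAMP substrate added; reaction 30 min at room temperature before stop solution and further 60 min. Fluorescence read on multilabel counter; IC50 fitted from inhibition rates.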

PDE4D2 = PDE4D2 (Homo sapiens, UniProt Q08499); test: PDE4 inhibitory activity assay (FAM-cAMP enzymatic reaction), PDE4D2
How it was run: as §1

PDE4B1 = target: T2, PDE4B1 (Homo sapiens, UniProt Q07343); test: PDE4 inhibitory activity assay (FAM-cAMP enzymatic reaction), PDE4B1
T2 construct: purchased BPS 60041
How it was run: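 Each isoform is incubated with test compound for 15 min at room temperature before FAM-cAMP substrate starts a 30-min reaction.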

T1 sequence (P27815 1-647 isoform P27815-4): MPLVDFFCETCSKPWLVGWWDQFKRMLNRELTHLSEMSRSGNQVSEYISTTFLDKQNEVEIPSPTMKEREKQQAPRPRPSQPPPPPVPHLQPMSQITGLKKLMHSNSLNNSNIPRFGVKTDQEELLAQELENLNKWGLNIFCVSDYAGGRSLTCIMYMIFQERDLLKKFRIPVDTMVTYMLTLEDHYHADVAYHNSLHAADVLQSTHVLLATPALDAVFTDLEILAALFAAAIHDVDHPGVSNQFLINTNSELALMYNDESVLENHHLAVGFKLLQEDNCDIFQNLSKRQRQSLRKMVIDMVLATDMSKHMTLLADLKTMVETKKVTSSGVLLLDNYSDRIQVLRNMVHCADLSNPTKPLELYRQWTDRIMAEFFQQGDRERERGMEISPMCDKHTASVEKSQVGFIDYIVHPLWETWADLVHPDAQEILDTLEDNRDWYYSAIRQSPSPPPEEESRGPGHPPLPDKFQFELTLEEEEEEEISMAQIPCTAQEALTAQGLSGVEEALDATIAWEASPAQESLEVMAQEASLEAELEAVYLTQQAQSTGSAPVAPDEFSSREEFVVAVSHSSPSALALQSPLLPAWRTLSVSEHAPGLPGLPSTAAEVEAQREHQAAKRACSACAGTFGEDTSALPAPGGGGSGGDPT
T2 sequence (Q07343 whole entry): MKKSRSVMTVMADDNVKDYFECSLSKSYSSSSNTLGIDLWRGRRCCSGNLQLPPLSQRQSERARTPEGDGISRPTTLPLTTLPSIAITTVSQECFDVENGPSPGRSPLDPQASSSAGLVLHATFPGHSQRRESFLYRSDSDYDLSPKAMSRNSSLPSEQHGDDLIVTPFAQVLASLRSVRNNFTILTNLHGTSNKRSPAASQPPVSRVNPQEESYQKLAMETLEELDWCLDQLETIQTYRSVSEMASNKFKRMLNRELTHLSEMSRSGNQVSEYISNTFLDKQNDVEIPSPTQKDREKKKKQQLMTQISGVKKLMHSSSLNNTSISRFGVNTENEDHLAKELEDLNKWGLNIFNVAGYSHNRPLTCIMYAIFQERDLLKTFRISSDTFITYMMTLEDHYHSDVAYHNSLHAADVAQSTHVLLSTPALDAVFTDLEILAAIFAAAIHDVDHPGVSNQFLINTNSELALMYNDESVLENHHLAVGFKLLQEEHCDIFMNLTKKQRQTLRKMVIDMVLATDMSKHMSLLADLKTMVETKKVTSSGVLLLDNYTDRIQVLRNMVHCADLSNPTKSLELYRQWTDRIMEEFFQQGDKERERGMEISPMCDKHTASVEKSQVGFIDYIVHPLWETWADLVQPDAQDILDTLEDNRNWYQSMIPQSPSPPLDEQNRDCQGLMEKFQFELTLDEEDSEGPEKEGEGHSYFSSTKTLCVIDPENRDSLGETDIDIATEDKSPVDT
PDE4D2, sequence (Q08499 303-809): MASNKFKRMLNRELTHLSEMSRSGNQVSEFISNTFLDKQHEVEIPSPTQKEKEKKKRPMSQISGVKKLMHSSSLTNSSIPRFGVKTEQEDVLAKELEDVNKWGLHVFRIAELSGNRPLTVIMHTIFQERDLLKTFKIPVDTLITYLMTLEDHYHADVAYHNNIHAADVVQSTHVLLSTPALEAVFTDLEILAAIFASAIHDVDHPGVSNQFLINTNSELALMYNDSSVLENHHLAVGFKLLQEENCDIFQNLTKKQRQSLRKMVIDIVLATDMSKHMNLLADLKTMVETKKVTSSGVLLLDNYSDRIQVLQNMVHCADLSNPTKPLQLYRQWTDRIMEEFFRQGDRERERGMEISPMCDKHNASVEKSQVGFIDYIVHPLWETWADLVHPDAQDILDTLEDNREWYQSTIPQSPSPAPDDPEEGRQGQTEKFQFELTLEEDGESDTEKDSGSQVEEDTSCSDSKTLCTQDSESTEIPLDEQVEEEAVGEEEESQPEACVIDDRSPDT

Compound	PDE4 A1 inhibitory effect at 20 nM (PDE4A1A)	PDE4 D2 inhibitory effect at 20 nM (PDE4D2)	PDE4 B1 inhibitory effect at 20 nM (PDE4B1)
CCOc1nc([C@H](CS(C)(=O)=O)N2Cc3cccc(NC(=O)CC)c3C2=O)ccc1OC [Ex. 220, (R)—N-(2-(1-(6-ethoxy-5-methoxypyridin-2-yl)-2-(methylsulfonyl)ethyl)-3-oxoisoindolin-4-yl)propionamide]	−	−	−
CCOc1nc(C(CS(C)(=O)=O)N2C(=O)c3csc([N+](=O)[O-])c3C2=O)ccc1OC (stereo not drawn) [Ex. 221, 5-(1-(6-ethoxy-5-methoxypyridin-2-yl)-2-(methylsulfonyl)ethyl)-1-nitro-4H-thieno[3,4-c]pyrrol-4,6(5H)-dione]	+	+	+
CCOc1nc([C@@H](CS(C)(=O)=O)N2C(=O)c3csc([N+](=O)[O-])c3C2=O)ccc1OC [Ex. 222, (S)-5-(1-(6-ethoxy-5-methoxypyridin-2-yl)-2-(methylsulfonyl)ethyl)-1-nitro-4H-thieno[3,4-c]pyrrol-4,6(5H)-dione]	+	+	+
CCOc1nc([C@@H](CS(C)(=O)=O)N2C(=O)c3csc(N)c3C2=O)ccc1OC [Ex. 223, (S)-1-amino-5-(1-(6-ethoxy-5-methoxypyridin-2-yl)-2-(methylsulfonyl)ethyl)-4H-thieno[3,4-c]pyrrol-4,6 (5H)-dione]	+	+	+
CCOc1nc([C@@H](CS(C)(=O)=O)N2C(=O)c3csc(NC(=O)CN(C)C)c3C2=O)ccc1OC [Ex. 228, (S)-2-(dimethylamino)-N-(5-(1-(6-ethoxy-5-methoxypyridin-2-yl)-2-(methylsulfonyl)ethyl)-4,6-dioxo-5,6-dihydro-4H-thieno[3,4-c]pyrrol-1-yl)acetamide]	+	+	+
CCOc1nc([C@@H](CS(C)(=O)=O)N2C(=O)c3csc(NC(=O)CN(CC)CC)c3C2=O)ccc1OC [Ex. 229, (S)-2-(diethylamino)-N-(5-(1-(6-ethoxy-5-methoxypyridin-2-yl)-2-(methylsulfonyl)ethyl)-4,6-dioxo-5,6-dihydro-4H-thieno[3,4-c]pyrrol-1-yl)acetamide]	+	+	+

The next lines start with the values.

PDE4 A1 inhibitory effect at 20 nM (PDE4A1A)	PDE4 D2 inhibitory effect at 20 nM (PDE4D2)	PDE4 B1 inhibitory effect at 20 nM (PDE4B1)	Compound
+	+	+	CCOc1nc(C(CS(C)(=O)=O)N2C(=O)c3csc(NC(C)=O)c3C2=O)ccc1OC (stereo not drawn) [Ex. 224, N-(5-(1-(6-ethoxy-5-methoxypyridin-2-yl)-2-(methylsulfonyl)ethyl)-4,6-dioxo-5,6-dihydro-4H-thieno[3,4-c]pyrrol-1-yl)acetamide]
−	−	−	CCOc1nc([C@H](CS(C)(=O)=O)N2C(=O)c3csc(NC(C)=O)c3C2=O)ccc1OC [Ex. 225, (R)—N-(5-(1-(6-ethoxy-5-methoxypyridin-2-yl)-2-(methylsulfonyl)ethyl)-4,6-dioxo-5,6-dihydro-4H-thieno[3,4-c]pyrrol-1-yl)acetamide]
+	+	+	CCOc1nc([C@@H](CS(C)(=O)=O)N2C(=O)c3csc(NC(=O)CC)c3C2=O)ccc1OC [Ex. 226, (S)—N-(5-(1-(6-ethoxy-5-methoxypyridin-2-yl)-2-(methylsulfonyl)ethyl)-4,6-dioxo-5,6-dihydro-4H-thieno[3,4-c]pyrrol-1-yl)propionamide]
+	+	+	CCOc1nc([C@@H](CS(C)(=O)=O)N2C(=O)c3csc(NC(=O)C4CC4)c3C2=O)ccc1OC [Ex. 227, (S)—N-(5-(1-(6-ethoxy-5-methoxypyridin-2-yl)-2-(methylsulfonyl)ethyl)-4,6-dioxo-5,6-dihydro-4H-thieno[3,4-c]pyrrol-1-yl)cyclopropanecarboxamide]
+	+	+	CCOc1nc([C@@H](CS(C)(=O)=O)N2C(=O)c3csc(NC(=O)CN4CCCCC4)c3C2=O)ccc1OC [Ex. 230, (S)—N-(5-(1-(6-ethoxy-5-methoxypyridin-2-yl)-2-(methylsulfonyl)ethyl)-4,6-dioxo-5,6-dihydro-4H-thieno[3,4-c]pyrrol-1-yl)-2-(piperidin-1-yl)acetamide]
+	+	+	CCOc1nc([C@@H](CS(C)(=O)=O)N2C(=O)c3csc(NC(=O)CN4CCCC4)c3C2=O)ccc1OC [Ex. 231, (S)—N-(5-(1-(6-ethoxy-5-methoxypyridin-2-yl)-2-(methylsulfonyl)ethyl)-4,6-dioxo-5,6-dihydro-4H-thieno[3,4-c]pyrrol-1-yl)-2-(pyrrolidin-1-yl)acetamide]
